Results: ChEMBL document CHEMBL4229358, “Synthesis of novel 4-functionalized 1,5-diaryl-1,2,3-triazoles containing benzenesulfonamide moiety as carbonic anhydrase I, II, IV and IX inhibitors” (Eur J Med Chem, 2018)

Target: Carbonic anhydrase 9 (Homo sapiens, UniProt Q16790)
Experiment: Inhibition of transmembrane human carbonic anhydrase 9 by stopped flow CO2 hydration assay

Structure (SMILES) | Ki
NNC(=O)c1nnn(-c2ccc(S(N)(=O)=O)cc2)c1-c1ccc(F)cc1 | 2450 nM
CCOC(=O)c1nnn(-c2ccc(S(N)(=O)=O)cc2)c1-c1cccs1 | 237 nM
NNC(=O)c1nnn(-c2ccc(S(N)(=O)=O)cc2)c1-c1ccc(Cl)cc1 | 909 nM
CCOC(=O)c1nnn(-c2ccc(S(N)(=O)=O)cc2)c1-c1ccc(Cl)cc1 | 1480 nM
NS(=O)(=O)c1ccc(-n2nnc(CO)c2-c2ccc(F)cc2)cc1 | 2370 nM
CCOC(=O)c1nnn(-c2ccc(S(N)(=O)=O)cc2)c1-c1ccc(C)cc1 | 198 nM
NNC(=O)c1nnn(-c2ccc(S(N)(=O)=O)cc2)c1-c1ccccn1 | 2900 nM
NS(=O)(=O)c1ccc(-n2nnc(CO)c2-c2ccc(Cl)cc2)cc1 | 1210 nM
NNC(=O)c1nnn(-c2ccc(S(N)(=O)=O)cc2)c1-c1cccs1 | 2830 nM
CCOC(=O)c1nnn(-c2ccc(S(N)(=O)=O)cc2)c1-c1ccccn1 | 1420 nM
NC(=O)c1nnn(-c2ccc(S(N)(=O)=O)cc2)c1-c1ccccn1 | 730 nM
NS(=O)(=O)c1ccc(-n2nnc(C(=O)O)c2-c2cccs2)cc1 | 1310 nM
NS(=O)(=O)c1ccc(-n2nnc(C(=O)O)c2-c2ccc(Cl)cc2)cc1 | 716 nM
NNC(=O)c1nnn(-c2ccc(S(N)(=O)=O)cc2)c1-c1ccc(Br)cc1 | 1350 nM
CCOC(=O)c1nnn(-c2ccc(S(N)(=O)=O)cc2)c1-c1ccc(F)cc1 | 633 nM
NC(=O)c1nnn(-c2ccc(S(N)(=O)=O)cc2)c1-c1ccc(Cl)cc1 | 117 nM
NS(=O)(=O)c1ccc(-n2nnc(C(=O)O)c2-c2ccc(Br)cc2)cc1 | 1410 nM
NC(=O)c1nnn(-c2ccc(S(N)(=O)=O)cc2)c1-c1ccc(Br)cc1 | 256 nM
Cc1ccc(-c2c(CO)nnn2-c2ccc(S(N)(=O)=O)cc2)cc1 | 2330 nM
NS(=O)(=O)c1ccc(-n2nnc(CO)c2-c2ccc(Br)cc2)cc1 | 1730 nM
Cc1ccc(-c2c(C(=O)NN)nnn2-c2ccc(S(N)(=O)=O)cc2)cc1 | 738 nM
NS(=O)(=O)c1ccc(-n2nnc(C(=O)O)c2-c2ccccn2)cc1 | 2090 nM
NC(=O)c1nnn(-c2ccc(S(N)(=O)=O)cc2)c1-c1cccs1 | 225 nM
NC(=O)c1nnn(-c2ccc(S(N)(=O)=O)cc2)c1-c1ccc(F)cc1 | 107 nM
Cc1ccc(-c2c(C(N)=O)nnn2-c2ccc(S(N)(=O)=O)cc2)cc1 | 73 nM
CCOC(=O)c1nnn(-c2ccc(S(N)(=O)=O)cc2)c1-c1ccc(Br)cc1 | 228 nM
NS(=O)(=O)c1ccc(-n2nnc(CO)c2-c2cccs2)cc1 | 71.2 nM
NS(=O)(=O)c1ccc(-n2nnc(CO)c2-c2ccccn2)cc1 | 14.3 nM
NS(=O)(=O)c1ccc(-n2nnc(C(=O)O)c2-c2ccc(F)cc2)cc1 | 1580 nM
Cc1ccc(-c2c(C(=O)O)nnn2-c2ccc(S(N)(=O)=O)cc2)cc1 | 1410 nM
